Experimental data reported in patent US7132504B2, “Hepatitis C virus inhibitors” (Bristol-Myers Squibb Company, priority 2003, dated 2006).

Experiments:
[1] = target: T1, human neutrophil elastase (HNE) (Homo sapiens, UniProt P08246); experiment: Specificity assay, human neutrophil elastase; type: biochemical; details: 2 h enzyme-inhibitor pre-incubation
T1 construct: purchased Sigma
T1 sequence (P08246 30-267): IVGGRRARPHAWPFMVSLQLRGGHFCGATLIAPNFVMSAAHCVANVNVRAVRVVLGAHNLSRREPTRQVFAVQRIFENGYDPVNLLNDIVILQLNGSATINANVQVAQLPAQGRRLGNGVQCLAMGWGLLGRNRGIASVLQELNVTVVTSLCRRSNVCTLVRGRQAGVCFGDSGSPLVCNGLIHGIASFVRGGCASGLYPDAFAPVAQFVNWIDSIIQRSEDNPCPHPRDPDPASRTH
Protocol: The specificities of compounds of the present invention were determined against a variety of serine proteases: human neutrophil elastase (HNE), porcine pancreatic elastase (PPE) and human pancreatic chymotrypsin and one cysteine protease: human liver cathepsin B. In all cases a 96-well plate format protocol using colorimetric p-nitroaniline (pNA) substrate specific for each enzyme was used as described previously (PCT Patent Application No. WO 00/09543) with some modifications to the serine protease assays. All enzymes were purchased from Sigma while the substrates were from Bachem.
Each assay included a 2 h enzyme-inhibitor pre-incubation at room temperature followed by addition of substrate and hydrolysis to ˜30% conversion as measured on a Spectramax Pro microplate reader. Compound concentrations varied from 100 to 0.4 μM depending on their potency. […]
The percentage of inhibition was calculated using the formula: [1−((UVinh−UVblank)/(UVctl−UVblank))]×100 […]

[2] = target: BMS strain of the NS3/4A protease complex (UniProt P27958, C1454S/C1711G, species not given/STRAIN_BMS); experiment: Recombinant HCV NS3/4A protease complex FRET peptide assay, BMS strain; type: biochemical, HCV genotype 1a (BMS strain)
Excerpt: The purpose of this in vitro assay was to measure the inhibition of HCV NS3 protease complexes, derived from the BMS strain, H77 strain or J416S strain, as described below, by compounds of the present invention. This assay provides an indication of how effective compounds of the present invention would be in inhibiting HCV proteolytic activity.
Serum from an HCV-infected patient was obtained from Dr. T. Wright, San Francisco Hospital. An engineered full-length cDNA (compliment deoxyribonucleic acid) template of the HCV genome (BMS strain) was constructed from DNA fragments obtained by reverse transcription-PCR (RT-PCR) of serum RNA (ribonucleic acid) and using primers selected on the basis of homology between other genotype 1a strains. From the determination of the entire genome sequence, a genotype 1a was assigned to the HCV isolate according to the classification of Simmonds et al. (See P Simmonds, K A Rose, S Graham, S W Chan, F McOmish, B C Dow, E A Follett, P L Yap and H Marsden, J. Clin. Microbiol., 31(6), 1493–1503 (1993)). […]

C=CC1C[C@]1(NC(=O)[C@@H]1C[C@@H](Oc2cc(-c3ccccc3)nc3cc(OC)ccc23)CN1C(=O)[C@@H](NC(=O)OC)C(C)(C)C)C(=O)NS(=O)(=O)N(C)Cc1ccccc1 (some centres unmarked) [Compound 9]
IC50 [1]: 46 µM
IC50 [2]: 0.128 µM
